# Reference: patent US11427615B2, “Peptide compound and application thereof, and composition containing peptide compound” (XDCEXPLORER (SHANGHAI) CO., LTD., priority 2017, dated 2022)
# Several values for one entry are separate records, joined by “and”; a condition that tells them apart may be missing. Equal entries are not always repeated. Starred links: 1 amine or outer side, 2 acyl side, 3 side chain; linkers in the order of their positions; H or OH if unused. Non-standard residues stand in square brackets, D forms with d. Residues, ends and D or L forms follow the SMILES beside them. *: point of attachment. X10 = CNC(=N)NCCC[C@H](NC(=O)[C@H](CC(C)C)NC(=O)NCN*)C(=O)N[C@@H](Cc1c[nH]c2ccccc12)C(N)=O; Ala(1-Me-3-pyridinium) = C[n+]1cccc(C[C@H](N)C(=O)O)c1; X6 = O=C([C@H](Cc1ccc(-n2cccn2)cc1)N[*:1])[*:2]; dPhe(2,4-Cl2) = N[C@H](Cc1ccc(Cl)cc1Cl)C(=O)O; X7 = c1ccc2c(C[C@H](N*)c3nn[nH]n3)c[nH]c2c1; Pro(4,4-F2) = O=C(O)[C@@H]1CC(F)(F)CN1; dPhe(4-F) = N[C@H](Cc1ccc(F)cc1)C(=O)O; azaPhe = O=C(N(Cc1ccccc1)N[*:1])[*:2]; Arg(Me) = CNC(=N)NCCC[C@H](N)C(=O)O; Hyp = O=C(O)[C@@H]1C[C@@H](O)CN1; X15 = CN(NC(=O)[*:2])[*:1]; Pip = O=C(O)[C@@H]1CCCCN1; dPip = O=C(O)[C@H]1CCCCN1; Ac6c = NC1(C(=O)O)CCCCC1; azaGly = NNC(=O)O
# Target: T1, human kiss1 receptor (GPR54) (Homo sapiens, UniProt Q969F8)
# T1 construct: host or cells: NFAT-bla CHO-K1 cells (Chinese hamster ovary), purchased recombinant cell line
# Test: Kiss1 receptor (GPR54) binding activity of agonists, FRET detection in NFAT-bla CHO-K1 cells
# Assay type: cell-based
# Conditions: GPR54; measured according to the method of effect Embodiment 1; preliminary data; read-out: Preliminary measurement data (GPR54) EC50
# T1 sequence (Q969F8 whole entry): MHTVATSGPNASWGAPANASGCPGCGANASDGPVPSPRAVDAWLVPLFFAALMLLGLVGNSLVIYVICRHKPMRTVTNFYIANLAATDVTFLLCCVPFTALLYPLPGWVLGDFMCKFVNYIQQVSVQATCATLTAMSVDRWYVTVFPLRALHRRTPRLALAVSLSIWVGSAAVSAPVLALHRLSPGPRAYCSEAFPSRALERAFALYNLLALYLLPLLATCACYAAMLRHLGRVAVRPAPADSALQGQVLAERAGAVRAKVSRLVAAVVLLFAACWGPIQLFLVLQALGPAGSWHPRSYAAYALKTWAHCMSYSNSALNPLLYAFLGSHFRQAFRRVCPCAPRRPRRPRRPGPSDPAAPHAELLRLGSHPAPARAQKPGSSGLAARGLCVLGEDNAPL
row,SMILES,EC50 [nM]
1,"CNC(=N)NCCC[C@H](NC(=O)[C@H](CC(C)C)NC(=O)[C@H]1CCCCN1C(=O)[C@H](Cc1ccccc1)NC(=O)[C@@H](NC(=O)[C@H](CC(N)=O)NC(=O)[C@@H]1C[C@@H](O)CN1C(=O)[C@@H](Cc1ccc(O)cc1)NC(C)=O)[C@@H](C)O)C(=O)N[C@@H](Cc1c[nH]c2ccccc12)C(N)=O [YA-227, Ac-(D-Tyr)-Hyp-Asn-Thr-Phe-(R-Pip)-Leu-Arg(Me)-Trp-NH2] (Ac-[dY][Hyp]NTF[dPip]L[Arg(Me)]W-NH2)",1.89
2,"CNC(=N)NCCC[C@H](NC(=O)[C@H](CC(C)C)NC(=O)C1(NC(=O)[C@H](Cc2ccccc2)NC(=O)[C@@H](NC(=O)[C@H](CC(N)=O)NC(=O)[C@@H]2CCCCN2C(=O)[C@@H](Cc2ccc(O)cc2)NC(C)=O)[C@@H](C)O)CCCCC1)C(=O)N[C@@H](Cc1c[nH]c2ccccc12)C(N)=O [YA-228, Ac-D-Tyr-(S-Pip)-Asn-Thr-Phe-A6c-Leu-Arg(Me)-Trp-NH2] (Ac-[dY][Pip]NTF[Ac6c]L[Arg(Me)]W-NH2)",0.65
3,"CNC(=N)NCCC[C@H](NC(=O)[C@H](CC(C)C)NC(=O)C1(NC(=O)[C@H](Cc2ccccc2)NC(=O)[C@@H](NC(=O)[C@H](CC(N)=O)NC(=O)[C@H]2CCCCN2C(=O)[C@@H](Cc2ccc(O)cc2)NC(C)=O)[C@@H](C)O)CCCCC1)C(=O)N[C@@H](Cc1c[nH]c2ccccc12)C(N)=O [YA-229, Ac-(D-Tyr)-(R-Pip)-Asn-Thr-Phe-A6c-Leu-Arg(Me)-Trp-NH2] (Ac-[dY][dPip]NTF[Ac6c]L[Arg(Me)]W-NH2)",20.3
4,"CNC(=N)NCCC[C@H](NC(=O)[C@H](CC(C)C)NC(=O)NNC(=O)[C@H](Cc1ccccc1)NC(=O)[C@@H](NC(=O)[C@H](CC(N)=O)NC(=O)[C@@H]1C[C@@H](O)CN1C(=O)[C@H](Cc1ccc[n+](C)c1)NC(C)=O)[C@@H](C)O)C(=O)N[C@@H](Cc1c[nH]c2ccccc12)C(N)=O [YA-239, Ac-[(S)-3-(2-amino-2-carboxyethyl)-1-methylpyridinium]-Hyp-Asn-Thr-Phe-azaGly-Leu-Arg(Me)-Trp-NH2] (Ac-[Ala(1-Me-3-pyridinium)][Hyp]NTF[azaGly]L[Arg(Me)]W-NH2)",1
5,"CNC(=N)NCCC[C@H](NC(=O)[C@H](CC(C)C)NC(=O)C1(NC(=O)[C@H](Cc2ccccc2)NC(=O)[C@@H](NC(=O)[C@H](CC(N)=O)NC(=O)[C@@H]2CC(F)(F)CN2C(=O)[C@@H](Cc2ccc(Cl)cc2Cl)NC(C)=O)[C@@H](C)O)CCCCC1)C(=O)N[C@@H](Cc1c[nH]c2ccccc12)C(N)=O [YA-248, Ac-[D-Phe(2,4-diCl)]-Pro(diF)-Asn-Thr-Phe-A6c-Leu-Arg(Me)-Trp-NH2] (Ac-[dPhe(2,4-Cl2)][Pro(4,4-F2)]NTF[Ac6c]L[Arg(Me)]W-NH2)",0.78
6,"CNC(=N)NCCC[C@H](NC(=O)[C@H](CC(C)C)NC(=O)C1(NC(=O)[C@H](Cc2ccccc2)NC(=O)[C@@H](NC(=O)[C@H](CC(N)=O)NC(=O)[C@@H]2CC(F)(F)CN2C(=O)[C@@H](Cc2ccc(O)cc2)NC(C)=O)[C@@H](C)O)CCCCC1)C(=O)N[C@@H](Cc1c[nH]c2ccccc12)C(N)=O [YA-251, Ac-D-Tyr-Pro(diF)-Asn-Thr-Phe-A6c-Leu-Arg(Me)-Trp-NH2] (Ac-[dY][Pro(4,4-F2)]NTF[Ac6c]L[Arg(Me)]W-NH2)",0.65
7,"CNC(=N)NCCC[C@H](NC(=O)[C@H](CC(C)C)NC(=O)NNC(=O)[C@H](Cc1ccccc1)NC(=O)[C@@H](NC(=O)[C@H](CC(N)=O)NC(=O)C1(NC(=O)[C@@H](Cc2ccc(Cl)cc2Cl)NC(C)=O)CCCCC1)[C@@H](C)O)C(=O)N[C@@H](Cc1c[nH]c2ccccc12)C(N)=O [YA-260, Ac-[D-Phe(2,4-DiCl)]-A6c-Asn-Thr-Phe-azaGly-Leu-Arg(Me)-Trp-NH2] (Ac-[dPhe(2,4-Cl2)][Ac6c]NTF[azaGly]L[Arg(Me)]W-NH2)",0.027

# Same assay, conditions: NFAT-bla CHO-K1 cells that express human kiss1 receptor (GPR54); FRET; cells cultured with compound for 4 hours; read-out: GPR54 EC50/nM
row,SMILES,EC50 [nM]
1,"CC(=O)N[C@H](Cc1ccc(Cl)cc1Cl)C(=O)N1CCCC[C@H]1C(=O)N[C@@H](CC(N)=O)C(=O)N[C@H](C(=O)N[C@@H](Cc1ccccc1)C(=O)NNC(=O)N[C@@H](CC(C)C)C(=O)N[C@@H](Cc1ccc(-n2cccn2)cc1)C(=O)N[C@@H](Cc1c[nH]c2ccccc12)C(N)=O)[C@@H](C)O [YA-242, Ac-[D-Phe(2,4-diCl)]—(S-Pip)-Asn-Thr-Phe-azaGly-Leu-Phe(4-Pyrazol)-Trp-NH2] (Ac-[dPhe(2,4-Cl2)][Pip]NTF[azaGly]L[X6]W-NH2)",3.75
2,"CNC(=N)NCCC[C@H](NC(=O)[C@H](CC(C)C)NC(=O)C1(NC(=O)[C@H](Cc2ccccc2)NC(=O)[C@@H](NC(=O)[C@H](CC(N)=O)NC(=O)C2(NC(=O)[C@@H](Cc3ccc(O)cc3)NC(C)=O)CCCCC2)[C@@H](C)O)CCCCC1)C(=O)N[C@@H](Cc1c[nH]c2ccccc12)C(N)=O [YA-243, Ac-D-Tyr-A6c-Asn-Thr-Phe-A6c-Leu-Arg(Me)-Trp-NH2] (Ac-[dY][Ac6c]NTF[Ac6c]L[Arg(Me)]W-NH2)",0.69

# Same assay, conditions: Preliminary measurement data (GPR54) EC50, nM), GPR54; measured according to the method of effect Embodiment 1; preliminary data
row,SMILES,EC50 [nM]
1,"CNC(=N)NCCC[C@H](NC(=O)[C@H](CC(C)C)NC(=O)CNC(=O)N(Cc1ccccc1)NC(=O)[C@@H](NC(=O)[C@H](CC(N)=O)NC(=O)[C@@H]1CCCCN1C(=O)[C@@H](Cc1ccc(Cl)cc1Cl)NC(C)=O)[C@@H](C)O)C(=O)N[C@@H](Cc1c[nH]c2ccccc12)C(N)=O [YA-241, Ac-[D-Phe(2,4-diCl)]—(S-Pip)-Asn-Thr-azaPhe-Gly-Leu-Arg(Me)-Trp-NH2] (Ac-[dPhe(2,4-Cl2)][Pip]NT[azaPhe]GL[Arg(Me)]W-NH2)",0.93

# Same assay, conditions: human kiss1 receptor (GPR54), NFAT-bla CHO-K1 cells, FRET; preliminary data; method of effect Embodiment 1; read-out: Preliminary measurement data (GPR54) EC50
row,SMILES,EC50
1,"CC(=O)N[C@H](Cc1ccc(Cl)cc1Cl)C(=O)N1CCCC[C@H]1C(=O)N[C@@H](CC(N)=O)C(=O)N[C@H](C(=O)N[C@@H](Cc1ccccc1)C(=O)NNC(=O)N[C@@H](CC(C)C)C(=O)N[C@@H](Cc1ccc(-n2cccn2)cc1)C(=O)N[C@@H](Cc1c[nH]c2ccccc12)C(N)=O)[C@@H](C)O [YA-242, Ac-[D-Phe(2,4-diCl)]—(S-Pip)-Asn-Thr-Phe-azaGly-Leu-Phe(4-Pyrazol)-Trp-NH2] (Ac-[dPhe(2,4-Cl2)][Pip]NTF[azaGly]L[X6]W-NH2)",3.74 nM
2,"CNC(=N)NCCC[C@H](NC(=O)[C@H](CC(C)C)NC(=O)C1(NC(=O)[C@H](Cc2ccccc2)NC(=O)[C@@H](NC(=O)[C@H](CC(N)=O)NC(=O)C2(NC(=O)[C@@H](Cc3ccc(F)cc3)NC(C)=O)CCCCC2)[C@@H](C)O)CCCCC1)C(=O)N[C@@H](Cc1c[nH]c2ccccc12)C(N)=O [YA-244, Ac-[D-Phe(4-F)]-A6c-Asn-Thr-Phe-A6c-Leu-Arg(Me)-Trp-NH2] (Ac-[dPhe(4-F)][Ac6c]NTF[Ac6c]L[Arg(Me)]W-NH2; C-terminus assumed)",1.17 nM
3,"CNC(=N)NCCC[C@H](NC(=O)[C@H](CC(C)C)NC(=O)[C@@H]1C[C@@H](O)CN1C(=O)[C@H](Cc1ccccc1)NC(=O)[C@@H](NC(=O)[C@H](CC(N)=O)NC(=O)C1(NC(=O)[C@@H](Cc2ccc(O)cc2)NC(C)=O)CCCCC1)[C@@H](C)O)C(=O)N[C@@H](Cc1c[nH]c2ccccc12)C(N)=O [YA-245, Ac-(D-Tyr)-A6c-Asn-Thr-Phe-Hyp-Leu-Arg(Me)-Trp-NH2] (Ac-[dY][Ac6c]NTF[Hyp]L[Arg(Me)]W-NH2)",26 nM
4,"CNC(=N)NCCC[C@H](NC(=O)[C@H](CC(C)C)NC(=O)NNC(=O)[C@H](Cc1ccccc1)NC(=O)[C@@H](NC(=O)[C@H](CC(N)=O)NC(=O)[C@@H]1C[C@@H](O)CN1C(=O)[C@@H](Cc1ccc(O)cc1)NC(C)=O)[C@@H](C)O)C(=O)N[C@@H](Cc1c[nH]c2ccccc12)C(=O)O [YA-246, Ac-(D-Tyr)-Hyp-Asn-Thr-Phe-azaGly-Leu-Arg(Me)-Trp-OH] (Ac-[dY][Hyp]NTF[azaGly]L[Arg(Me)]W-OH)",2.86 nM
5,"CNC(=N)NCCC[C@H](NC(=O)[C@H](CC(C)C)NC(=O)NN(C)C(=O)[C@H](Cc1ccccc1)NC(=O)[C@@H](NC(=O)[C@H](CC(N)=O)NC(=O)[C@@H]1C[C@@H](O)CN1C(=O)[C@@H](Cc1ccc(O)cc1)NC(C)=O)[C@@H](C)O)C(=O)N[C@@H](Cc1c[nH]c2ccccc12)C(N)=O [YA-247, Ac-(D-Tyr)-Hyp-Asn-Thr-Phe-azaNMeGly-Leu-Arg(Me)-Trp-NH2] (Ac-[dY][Hyp]NTF[X15]L[Arg(Me)]W-NH2)",11 nM
6,"CNC(=N)NCCC[C@H](NC(=O)[C@H](CC(C)C)NC(=O)NNC(=O)[C@H](Cc1ccccc1)NC(=O)[C@@H](NC(=O)[C@H](CC(N)=O)NC(=O)[C@@H]1C[C@@H](O)CN1C(=O)[C@@H](Cc1ccc(O)cc1)NC(C)=O)[C@@H](C)O)C(=O)N[C@@H](Cc1c[nH]c2ccccc12)c1nn[nH]n1 [YA-250, Ac-(D-Tyr)-Hyp-Asn-Thr-Phe-azaG-Leu-Arg(Me)-Trp-2H-tetrazol-5-yl] (Ac-[dY][Hyp]NTF[azaGly]L[Arg(Me)]-X7)",7.5 nM and 15.4 nM
7,"CNC(=N)NCCC[C@H](NC(=O)[C@H](CC(C)C)NC(=O)C1(NC(=O)[C@H](Cc2ccccc2)NC(=O)[C@@H](NC(=O)[C@H](CC(N)=O)NC(=O)[C@@H]2CC(F)(F)CN2C(=O)[C@@H](Cc2ccc(Cl)cc2Cl)NC(C)=O)[C@@H](C)O)CCCCC1)C(=O)N[C@@H](Cc1c[nH]c2ccccc12)C(=O)NC [YA-253, Ac-D-Phe(2,4-DiCl)-DiFluorPro-Asn-Thr-Phe-A6c-Leu-Arg(Me)-Trp-NHMe] (Ac-[dPhe(2,4-Cl2)][Pro(4,4-F2)]NTF[Ac6c]L[Arg(Me)]W-NHMe)",97.8 nM
8,"CNC(=N)NCCC[C@H](NC(=O)[C@H](CC(C)C)NC(=O)NCNC(=O)[C@H](Cc1ccccc1)NC(=O)[C@@H](NC(=O)[C@H](CC(N)=O)NC(=O)[C@@H]1C[C@@H](O)CN1C(=O)[C@@H](Cc1ccc(O)cc1)NC(C)=O)[C@@H](C)O)C(=O)N[C@@H](Cc1c[nH]c2ccccc12)C(N)=O [YA-256, Ac-(D-Tyr)-Hyp-Asn-Thr-Phe-ψ(NH—CO—NH)Gly-Leu-Arg(Me)-Trp-NH2] (Ac-[dY][Hyp]NTF-X10)",2.6 nM
9,"CNC(=N)NCCC[C@H](NC(=O)[C@H](CC(C)C)NC(=O)C1(NC(=O)[C@H](Cc2ccccc2)NC(=O)[C@@H](NC(=O)[C@H](CC(N)=O)NC(=O)C2(NC(=O)[C@@H](Cc3ccc(Cl)cc3Cl)NC(C)=O)CCCCC2)[C@@H](C)O)CCCCC1)C(=O)N[C@@H](Cc1c[nH]c2ccccc12)C(N)=O [YA-259, Ac-D-Phe(2,4-DiCl)-A6c-Asn-Thr-Phe-Abc-Leu-Arg(Me)-Trp-NH2] (Ac-[dPhe(2,4-Cl2)][Ac6c]NTF[Ac6c]L[Arg(Me)]W-NH2)",3.2 nM
